Some results are limits rather than exact numbers.

As a reminder, the inhibition is how much of the control response was suppressed. A word on the IC50: it is the concentration that inhibits the measured activity by half. Low values mean higher potency, high ones lower potency.

Test [1] concerns the target T1, MAGL (monoacylglycerol lipase) (Mus musculus, UniProt O35678).
T1 sequence (O35678 1-303): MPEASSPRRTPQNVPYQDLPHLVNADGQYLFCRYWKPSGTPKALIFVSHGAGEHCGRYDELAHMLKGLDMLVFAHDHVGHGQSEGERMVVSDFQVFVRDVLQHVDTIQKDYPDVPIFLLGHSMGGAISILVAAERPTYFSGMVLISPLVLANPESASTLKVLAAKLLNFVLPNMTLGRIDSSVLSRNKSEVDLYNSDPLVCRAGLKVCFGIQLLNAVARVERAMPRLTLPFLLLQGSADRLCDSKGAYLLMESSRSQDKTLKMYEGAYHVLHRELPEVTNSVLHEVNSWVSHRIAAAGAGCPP
As to the kind of experiment: gel-based competitive ABPP with FP-TAMRA at […]. Further details: gene Mgll; endogenous, mouse brain membrane proteome. It is filed as cell-based. The settings on record: read-out: % inhibition at 10 μM.

Test [2] addresses T1, MAGL (monoacylglycerol lipase). As to the kind of experiment: biochemical. Further details: gene Mgll; endogenous, mouse brain membrane proteome; gel-based competitive ABPP with FP-TAMRA on mouse brain membrane proteome, MAGL labelling, n=1. The following applies: read-out: Inhibition ABPP assay (%). The text has this:
Subsequently, the qualified hits underwent testing in an orthogonal gel-based competitive activity-based protein profiling (ABPP) assay, a powerful technique for obtaining an initial selectivity profile of these compounds. The assay employed fluorophosphonate-tetramethylrhodamine (FP-TAMRA), a broad-spectrum activity-based probe designed to target a wide range of serine hydrolases, including endocannabinoid hydrolases like MAGL, fatty acid amide hydrolase (FAAH), and alpha/beta hydrolase domain-containing protein 6 (ABHD6)[30],[31]. […] This observation could indicate potential species differences or a short residence time for the target. A correlation between inhibitor potency in the primary substrate-based assay and the orthogonal ABPP assay was, however, noted for the majority of compounds (Fig. 1f). […] This characteristic positions it as a promising candidate for further optimization. 71 Figure S1 72 73 74 75 76 Supplementary Figure 1 – Orthogonal competitive ABPP assay for hit validation and selectivity assessment. 77 ABPP was performed on mouse brain membrane proteome using FP-TAMRA. Proteome was pre-incubated with 78 inhibitor (10 µM, 30 min), followed by incubation with FP-TAMRA (100 nM, 10 min). JZL184 was included as 79 positive control on all gels. […] Physicochemical properties (cLogP, tPSA, HBD, HBA) were calculated using ChemDraw Professional 31 16.0.

In test [3] the target is T2, MAGL (monoacylglycerol lipase) (Homo sapiens, UniProt Q99685).
T2 construct: gene MGLL; full-length, C-terminal FLAG-tag, HEK293T membrane fractions
T2 sequence (Q99685 whole entry): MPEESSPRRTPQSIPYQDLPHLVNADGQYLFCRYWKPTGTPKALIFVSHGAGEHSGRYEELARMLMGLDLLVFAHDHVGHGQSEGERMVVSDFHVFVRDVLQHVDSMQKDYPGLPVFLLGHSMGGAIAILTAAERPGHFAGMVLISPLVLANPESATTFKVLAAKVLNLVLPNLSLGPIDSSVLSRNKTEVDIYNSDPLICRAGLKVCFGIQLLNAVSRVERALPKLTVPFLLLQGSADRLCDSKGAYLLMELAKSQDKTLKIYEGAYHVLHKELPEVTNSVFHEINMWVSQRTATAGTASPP
As to the kind of experiment: fluorescent 2-AG hydrolysis assay on human MAGL-overexpressing HEK293T membranes. It is filed as biochemical.

`CCOC(=O)C[S+]([O-])c1ccc(C(=O)N2CCN(c3cccc(C)c3)C(C)C2)cc1[N+](=O)[O-]` (stereo not drawn) [compound 1, ethyl 2-((4-(3-methyl-4-(m-tolyl)piperazine-1-carbonyl)-2-nitrophenyl)sulfinyl)acetate]: the inhibition at 10 µM in test [1] was greater than 25%; in test [2], 86%. 398 nM corresponded to half-maximal inhibition in test [3] (IC50).

(Values after PMC10698032, “A monoacylglycerol lipase inhibitor showing therapeutic efficacy in mice without central side effects or dependence” (Nature Communications, 2023).)
